Reference: patent publication US6900216B2, “Dihydroimidazo[2,1-b]thiazole and dihydro-5h-thiazolo[3,2-A]pyrimidines as antidepressant agents” (Knoll GmbH, priority 2000, dated 2005)

Experiments:
5-HT reuptake sites = molecular target: T1, 5-HT reuptake sites (Rattus norvegicus, UniProt P31652); assay: 5-HT uptake: displacement of [3H]citalopram from 5-HT reuptake sites, rat frontal cortical membranes; format: binding; details: for inhibition at 1 µM: 10^−6 M test compound, single determination, [3H]citalopram; for Ki: [3H]citalopram 1.3 nM, rat frontal cortical membranes, fit to data from three experiments
T1 construct: Frontal cortical tissue from the brains of male Charles River rats; from tissue; host or cells: rat frontal cortical membranes
Description: Frontal cortical tissue from the brains of male Charles River rats weighing 150-250 g was homogenised in ice-cold 50 mM Tris-HCl, pH 7.4 (when measured at 25° C.) containing 120 mM sodium chloride and 5 mM potassium chloride (Tris buffer; 1:30 w/v) and centrifuged at 40,000 g for 10 minutes. The supernatant was discarded and the pellet rehomogenised in Tris buffer, 1:60 w/v, and centrifuged at 40,000 g for 10 minutes. This step was repeated a further time. The final pellet was resuspended in 50 mM Tris-HCl, pH 7.4 containing 120 mM sodium chloride and 5 mM potassium chloride (equivalent to 3.125 mg wet weight of tissue/ml) and used immediately in the binding assay. All centrifugations were performed at 4° C.
Membranes (400 μl; equivalent to 1.25 mg wet weight of tissue/tube) were incubated with 50 μl [^3H]citalopram at a single concentration of 1.3 nM and 50 μl of distilled water (total binding) or 50 μl of test compound (at a single concentration of 10^−6 M or at 10 concentrations ranging from 10^−11-10^−3 M) or 50 μl of paroxetine (0.5 μM; non-specific binding) for 1 h at 27° C. Membrane bound radioactivity was recovered by filtration under vacuum through Skatron 11734 filters presoaked in 0.5% PEI using a Skatron Cell Harvester. Filters were then washed in ice-cold 50 mM Tris-HCl buffer, pH 7.4 (at 25° C., wash setting 9,9,0). The scored filter paper discs were punched out into vials, scintillation fluid added and radioactivity determined by liquid scintillation counting.
(§1) For each of these tests measuring the ability of compounds of Formula I to displace standard ligands from 5-HT1A receptors and 5-hydroxytryptamine (5-HT) and noradrenaline (NA) reuptake sites and muscarinic receptors in vitro, the percentage displacement of specific binding of tritiated ligand by 10^−6 M test compound was calculated in the following way.
(§2) Firstly, specific binding of tritiated ligand in the absence (A) and presence (B) of test compound was determined:
(§3) In the absence of compound: A(dpm)=Total binding (dpm)−Non-specific binding (dpm) In the presence of compound (10^−6 M): B(dpm)=Binding at 10^−6M (dpm)−Non-specific binding (dpm)
(§4) The specific binding of tritiated ligand in the presence (B) of compound was then converted to a percentage of specific binding of tritiated ligand in the absence (A) of compound: % Specific binding at 10^−6 M=B(dpm)/A(dpm)×100
(§5) The percentage displacement of specific binding of tritiated ligand by the test compound (10^−6 M) was then obtained by subtraction of the percentage specific binding in the presence of compound from the percentage specific binding in the absence of compound, which is taken as the maximum binding and so equals 100%:
(§6) % Displacement at 10^−6 M=100−% Specific binding at 10^−6 M.
(§7) In some cases, displacement curves were then produced for compounds which displaced ≧50% of specific binding of the tritiated ligand at 10^−6 M using a range of concentrations of the compound. The Ki was then calculated by simultaneous fitting using equations derived from the Feldman equations by robust non-linear regression to data from three experiments simultaneously (De Lean et al., 1978; Munson and Rodbard, 1980; Feldman, 1992). Munson P J and Rodbard D. Ligand: a versatile computerised approach for characterisation of ligand binding systems. Anal Biochem 1980; 107: 220. Feldman HA. Mathematical theory of complex ligand binding systems at equilibrium: some methods for parameter fitting. Anal Biochem 1992: 48, 317. De Lean A, Munson P J and Rodbard D. Simultaneous analysis of families of sigmoidal curves: application to bioassay, radioligand assay, and physiological dose-response curves. Am J Physiol 1978: 235 (2), E97-E102.
The results obtained in the above tests for 5-HT1A binding and 5-HT and NA uptake and muscarinic binding for the final products of Examples 1-39 hereinafter are given in Table 1 below. Kis are in nM. % Figures are for % displacement at 10^−6 M for a single determination.

[1] = molecular target: T2, noradrenaline (NA) reuptake sites (Rattus norvegicus, UniProt Q63380); assay: NA uptake: displacement of [3H]nisoxetine from noradrenaline reuptake sites, rat frontal cortical membranes; format: binding; details: for inhibition at 1 µM: read-out: NA uptake % displacement at 10^−6 M; for Ki: [3H]nisoxetine 0.6 nM, rat frontal cortical membranes, fit to data from three experiments
T2 construct: Frontal cortical tissue from the brains of male Charles River rats; from tissue; host or cells: rat frontal cortical membranes
Description: Frontal cortical tissue from the brains of male Charles River rats weighing 150-250 g was homogenised in ice-cold 50 mM Tris-HCl, pH 7.4 (at 25° C.) containing 120 mM sodium chloride and 5 mM potassium chloride (Tris buffer; 1:60 w/v) using a Kinematic polytron (speed setting 6 for 10 seconds) and centrifuged at 40,000 g for 10 minutes. The supernatant was discarded and the pellet rehomogenised in Tris buffer, 1:60 w/v, and centrifuged at 40,000 g for 10 minutes. This step was repeated twice more so that, in total, the brain tissue was homogenised and centrifuged four times. The final pellet was resuspended in 50 mM Tris-HCl, pH 7.4 containing 300 mM sodium chloride and 5 mM potassium chloride (equivalent to 18.75 mg wet weight of tissue/ml) and used immediately in the binding assay. All centrifugations were performed at 4° C.
Membranes (400 μl; equivalent to 7.5 mg wet weight of tissue/tube) were incubated with 50 μl [^3H]nisoxetine at a single concentration of 0.6 nM and 50 μl of distilled water (total binding) or 50 μl^− of test compound (at a single concentration 10^−6M or at 10 concentrations ranging from 10^−11-10^−3 M) or 50 μl of mazindol (1 μM; non-specific binding) for 4 h at 4° C. Membrane bound radioactivity was recovered by filtration under vacuum through Skatron 11734 filters using a Skatron cell harvester. Filters were rapidly washed with ice-cold 50 mM Tris-HCl, pH 7.4 containing 120 mM sodium chloride and 5 mM potassium chloride (wash setting 9,9,0). The scored filter paper discs were punched out into vials, scintillation fluid added and radioactivity determined by liquid scintillation counting.
as §1, §2, §3, §4, §5, §6
as §7, with “E97-E102. […]” for “E97-E102.”

T1 sequence (P31652 whole entry): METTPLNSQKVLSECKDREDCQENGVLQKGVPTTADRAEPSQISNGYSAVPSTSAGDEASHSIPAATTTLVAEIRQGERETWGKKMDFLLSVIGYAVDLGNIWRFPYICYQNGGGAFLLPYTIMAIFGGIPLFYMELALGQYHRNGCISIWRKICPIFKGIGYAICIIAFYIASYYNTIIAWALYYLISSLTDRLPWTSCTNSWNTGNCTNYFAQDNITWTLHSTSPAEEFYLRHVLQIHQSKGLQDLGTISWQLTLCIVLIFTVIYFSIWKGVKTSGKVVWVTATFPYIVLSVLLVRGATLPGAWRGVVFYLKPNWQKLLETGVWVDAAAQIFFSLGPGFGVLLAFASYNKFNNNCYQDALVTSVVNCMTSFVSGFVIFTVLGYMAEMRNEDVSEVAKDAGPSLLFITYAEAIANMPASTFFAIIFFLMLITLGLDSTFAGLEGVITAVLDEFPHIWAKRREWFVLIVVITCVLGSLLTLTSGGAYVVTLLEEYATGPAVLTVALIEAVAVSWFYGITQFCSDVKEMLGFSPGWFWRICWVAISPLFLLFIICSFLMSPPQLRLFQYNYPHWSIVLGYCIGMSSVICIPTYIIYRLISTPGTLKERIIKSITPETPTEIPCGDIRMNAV
T2 sequence (Q63380 1-617): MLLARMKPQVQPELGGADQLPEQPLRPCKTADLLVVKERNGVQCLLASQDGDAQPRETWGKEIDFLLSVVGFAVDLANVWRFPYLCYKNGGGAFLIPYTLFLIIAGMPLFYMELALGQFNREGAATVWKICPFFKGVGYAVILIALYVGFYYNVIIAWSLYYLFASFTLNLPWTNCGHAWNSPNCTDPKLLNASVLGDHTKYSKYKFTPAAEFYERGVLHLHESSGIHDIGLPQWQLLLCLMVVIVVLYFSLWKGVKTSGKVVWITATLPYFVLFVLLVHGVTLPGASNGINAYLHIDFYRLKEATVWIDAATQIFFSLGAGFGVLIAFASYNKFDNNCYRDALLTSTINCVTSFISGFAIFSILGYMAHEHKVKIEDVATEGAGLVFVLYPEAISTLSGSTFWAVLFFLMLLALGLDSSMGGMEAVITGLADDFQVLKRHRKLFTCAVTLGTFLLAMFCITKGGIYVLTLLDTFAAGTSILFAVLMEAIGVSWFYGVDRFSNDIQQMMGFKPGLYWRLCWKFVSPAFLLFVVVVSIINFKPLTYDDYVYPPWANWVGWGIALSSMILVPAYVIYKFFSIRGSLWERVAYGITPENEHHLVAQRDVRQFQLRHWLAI

Compound	melting point [°C]	inhibition at 1 µM (5-HT reuptake sites) [%]	inhibition at 1 µM [1] [%]	Ki (5-HT reuptake sites) [nM]	Ki [1] [nM]
CC1=C(c2cccc3sc(C)cc23)N2CCN=C2S1.Cl [Example 33, 2-methyl-3-(2-methylbenzo[b]thiophen-4-yl)-5,6-dihydroimidazo[2,1-b]thiazole hydrochloride]	271	62	84		
Br.c1cc(C2=C(C3CC3)SC3=NCCN32)c2ccsc2c1 [Example 34, 3-(benzo[b]thiophen-4-yl)-2-cyclopropyl-5,6-dihydroimidazo[2,1-b]thiazole hydrobromide]	213 to 214			53	2
CC(C)C1=C(c2cccc3sccc23)N2CCN=C2S1.O=C(O)/C=C/C(=O)O [Example 35, 3-(benzo[b]thiophen-4-yl)-2-(1-methylethyl)-5,6-dihydroimidazo[2,1-b]thiazole fumarate]	175 to 178			83	5.5
Br.C=CCC1=C(c2cccc3sccc23)N2CCN=C2S1 [Example 36, 2-allyl-3-(benzo[b]thiophen-4-yl)-5,6-dihydroimidazo[2,1-b]thiazole hydrobromide]	188 to 190			89	1.7
Br.CC1=C(c2ccc3ccsc3c2)N2CCN=C2S1 [Example 37, 3-(benzo[b]thiophen-6-yl)-2-methyl-5,6-dihydroimidazo[2,1-b]thiazole hydrobromide]	252 to 254			213	7.4
Br.CC1=C(c2ccc(F)c3sccc23)N2CCN=C2S1 [Example 38, 3-(7-fluorobenzo[b]thiophen-4-yl)-2-methyl-5,6-dihydroimidazo[2,1-b]thiazole hydrobromide]	265 to 267			61	1.2
C=CC1=C(c2cccc3sccc23)N2CCN=C2S1.Cl [Example 39, 3-(benzo[b]thiophen-4-yl)-2-vinyl-5,6-dihydroimidazo[2,1-b]thiazole hydrochloride]	195 to 197	70	100		
